Source: US7592305B2, “Use of ghrelin for treating malnutrition in gastrectomized individuals” (Gastrotech Pharma A/S, priority 2002, dated 2009)
Ends that are not written are not given here. * marks the point of attachment. Octanoyl = CCCCCCCC(=O)*

System: gastrectomised rats
Experiment: Treatment of totally gastrectomised (vagotomised) rats with ghrelin analogue MK-0677 by gavage
Format: in vivo, rat
Description: Total gastrectomy was performed and followed by end-to-end anastomosis between the esophagus and the duodenum as described in Lehto-Axtelius D., et al. Osteopenia after gastrectomy, fundectomy or antrectomy: an experimental study in the rat., Regul. Pept. 78 (1998), 41-50. The gastrectomy was accompanied by total vagotomy at the level of cardia. Sham operation was performed by opening the abdomen and moving the stomach.
In sham gastrectomised rats the ghrelin levels were 2.06±0.22 ng/ml, while they were less than the least detectable level of the assay, i e, 0.25 ng/ml after gastrectomy. From four weeks after gastrectomy the animals were administered either water or the ghrelin analogue MK-0677 by gavage once daily (4 mg/kg/day).
Food intake and body weight was measured daily and throughout the experiment. […] After two weeks of treatment, the animals were decapitated and blood and tissues collected and rapidly frozen. Gonadal, mesenteric and retroperitoneal far pads were dissected and weighed, and the sum of the weight was then calculated. Ghrelin was measured in serum using a kit purchased from Phoenix Pharmaceuticals as described (Dornonville de la Cour, supra).

[1] = 4 mg/kg/day by gavage once daily, after two weeks of treatment, vs water

Molecule | body weight (4 mg/kg/day by gavage once daily from four weeks after gastrectomy, two weeks of treatment, vs water) | hypothalamic levels of neuropeptide Y (NPY) mRNA [1] | sum of dissected fat pad weights (gonadal, mesenteric and retroperitoneal) [1] | desire for food (food intake measured daily) (treated once daily by gavage)
CC(C)(N)C(=O)N[C@H](COCc1ccccc1)C(=O)N1CCC2(CC1)CN(S(C)(=O)=O)c1ccccc12 [MK677] | increased | increased | enhanced | 
ghrelin: acylated peptide of 28 amino acids with an octanoyl ester attached to a serine residue (GSS(Octanoyl)FLSPEHQRVQQRKESKKPPAKLQPR; listed as Homo sapiens) |  |  |  | increased
